Values of other authors, collected in PMC5413030, “Radiochemistry on electrodes: Synthesis of an ^18F-labelled and in vivo stable COX-2 inhibitor” (PLoS ONE, 2017).

Columns and labels:
[1] = oxidation of the methyl group

protein binding in plasma: > 95%
metabolic behavior of celecoxib [1]: almost completely metabolized
SMILES: Cc1ccc(-c2cc(C(F)(F)F)nn2-c2ccc(S(N)(=O)=O)cc2)cc1 [Celecoxib, 4-[5-(4-Methylphenyl)-3-(trifluoromethyl)-1H-pyrazol-1-yl]benzenesulfonamide]
